These results are taken from patent publication US5486624A (Pacific Corporation, priority 1994, dated 1996).

A short description of data set [1]: DPPH (diphenylpicrylhydrazyl) radical-scavenging test. Conditions: for IC50: DPPH 100 μM in ethanol, 37° C., 30 minutes, 515 nm, read-out: IC50 (concentration of test compound which scavenges the radical DPPH by 50%). On the procedure: Harmful radical-scavenging activities of the compounds of Examples 1 and 2 were compared with those of conventional anti-oxidants using a DPPH (diphenylpicrylhydrazyl) radical-scavenging test as follows:
DPPH was dissolved into ethanol to a concentration of 100 μM. A series of dilutions of compounds of Examples 1 and 2, vitamin C, vitamin E or hydroquinone were prepared. Ethanol and water were used to dilute the test compounds. As a control, a 1:1 mixture of ethanol and water was used. The series of dilutions of each test compound were mixed with 1,900 μl of DPPH solution and the dilution solvent was added to 2.0 ml. The resulting mixture was reacted in an incubator at 37° C. for 30 minutes. Absorbance was measured at 515 nm. The radical-scavenging activities of the compounds of Examples 1 and 2 and conventional anti-oxidants were calculated by the following equation: [formula]
IC50, i.e., the concentration of test compound which scavenge the radical, DPPH by 50% was calculated by the serial dilution method for each test compound.
For orientation: DPPH is a stable violet radical that fades when it is reduced.

In data set [2] the test system is tyrosinase. The conditions noted are these: prior art statement; cited from earlier work.
The target in data set [3] is Tyrosinase. As to the kind of experiment: Tyrosinase-inhibiting activity. It is filed as biochemical, mushroom. The conditions noted are these: for IC50: mushroom tyrosinase, tyrosine, pH 6.8, 37° C., 10 minutes, 475 nm, read-out: IC50 (concentration of test compound which inhibits tyrosinase by 50%); for tyrosinase inhibition activity, fold higher than that of kojic acid: relative to kojic acid, in terms of IC50. On the procedure:
Tyrosinase, which was extracted from mushroom, was purchased from SIGMA. […] Ethanol and water were used to dilute the test compounds. As a control, 0.9 ml of a 1:1 mixture of ethanol and water was used. […] The test tube was quickly cooled in an ice water bath to stop the reaction, and absorbance was measured at 475 nm. […] IC50, i.e., the concentration of test compound which inhibits tyrosinase by 50% was calculated by serial dilution for each test compound.

Data set [4] concerns human skin. Briefly: human body patch test (skin safety). Type of data set: in vivo. Conditions: for number of positive subjects/the number of total subjects: cream with 0.2 wt. % compound, 20 μl plaster, 30 volunteers; for safety to human skin (in words): overall conclusion. On the procedure:
In order to examine the safety of the compounds of Examples 1 and 2, a human body patch test was carried out as follows:
The brachium of thirty(30) healthy volunteers (15 females and 15 males) was thoroughly washed with 70% ethanol and applied with a plaster containing 20 μl of a conventional creamy preparation incorporating 0.2 wt. % of one of the compounds of Examples 1 and 2. The plaster was thoroughly bonded to the brachium using an adhesive tape. 48 hours later, the tape and chamber were removed, and the adherent site of the arm was wiped with a gauze to remove any remaining preparation. […] 48 hours later, the site was examined again.
The results are shown in terms of the number of positive subjects/the number of total subjects.

In the case of `O=C1O[C@H]([C@@H](O)CO)C(O)=C1O` [Vitamin C, reference compound], the IC50 in data set [1] is 29.2 µM.

Take `O=c1cc(CO)occ1O` [Kojic acid]: in data set [2], the “inhibition of tyrosinase (in words)” value is “strongly inhibits the action of tyrosinase”.

As for “tocopherol [Vitamin E, reference compound]”, in data set [1], the IC50 stood at 34.8 µM.

`O=C(C=Cc1ccc(O)c(O)c1)OCc1cc(=O)c(O)co1` [Example 1, 2-(3,4-dihydroxycinnamoyl)oxymethyl-5-hydroxy-4H-pyran-4-one]: the IC50 in data set [3] is 4 µM; in data set [1], 12.3 µM. In data set [3], the “tyrosinase inhibition activity, fold higher than that of kojic acid” value stood at 20 fold. In data set [1], the “radical-scavenging activity (in words)” value is reported as “strong activity as a radical scavenger”. Moreover, the “number of positive subjects/the number of total subjects” value in data set [4] (48 hours later) is 1/30; in data set [4] (96 hours later) it was 0/30. Further, the “skin response in patch test (in words)” value is given as “weak positive response” in data set [4] (after 48 hours) and “disappeared” in data set [4] (after 96 hours). Besides, the “safety to human skin (in words)” value in data set [4] was “safe to human skin”.

Consider `Oc1ccc(O)cc1` [Hydroquinone, hydroquinone, reference compound], for which the IC50 in data set [1] turned out to be 25.4 µM.

`COc1cc(C=CC(=O)OCc2cc(=O)c(O)co2)ccc1O` [Example 2, 2-(4-hydroxy-3-methoxycinnamoyl) oxymethyl-5-hydroxy-4H-pyran-4-one]: the IC50 was found to be 4 µM in data set [3] and 70 µM in data set [1]. Also, in data set [3], the “tyrosinase inhibition activity, fold higher than that of kojic acid” value is 20 fold. In addition, the “number of positive subjects/the number of total subjects” value is reported as 1/30 in data set [4] (48 hours later) and 0/30 in data set [4] (96 hours later). Besides, the “skin response in patch test (in words)” value is “weak positive response” in data set [4] (after 48 hours) and “disappeared” in data set [4] (after 96 hours). Besides, the “safety to human skin (in words)” value in data set [4] was “safe to human skin”.
